Results on 30 compounds are retold here after patent US11111242B2, “Pyrrolo[2,3-d]pyrimidinyl, pyrrolo[2,3-b]pyrazinyl and pyrrolo[2,3-d]pyridinyl acrylamides” (Pfizer Inc., priority 2013, dated 2021).

One experiment has as its system IL-15 induced P-STAT5 in human PBMC (total lymphocytes). Description: PBMC IL-15 Induced P-STAT5. The following applies: Homo sapiens, PBMC, IL-15 stimulated, read-out: PBMC IL15-pSTAT5 IC50. It counts as cell-based. As to the method: PBMC IL-15 Induced P-STAT5
Frozen human PBMC (200-250 million cells/vial) was thawed at 37° C. The cells were transferred to 10 mL warm medium in a 50-mL conical tube, and centrifuged at 1,200 RPM at room temperature for 5 min. The supernatant was aspirated. […] After adding 47 ml D-PBS (37° C.) to PBMC/FBS suspension, centrifuging at 1,200 RPM at room temperature for 5 min, and aspirating the supernatant, the cells were resuspended in 20 mL warm RPMI medium. Ninety μL of cell suspension were pipetted per well in a 96-well, deep-well, V-bottom plate, and the plate was incubated at 37° C. for 30 min. […] After adding 0.8 mL staining buffer per well, the plates were centrifuged at 1,200 RPM (Beckman GS-6R or Sorvall Legend) at room temperature for 5 min, and again the supernatant was aspirated using a 8-channel or 12-channel manifold. The plate was vortexed, and 0.35 mL 90% methanol/10% H2O (−20° C.) was added per well, and the plate incubated on ice for 20 min. After again adding 0.8 mL staining buffer per well, the plates were centrifuged at 1,200 RPM (Beckman GS-6R or Sorvall Legend) at room temperature for 5 min, and again the supernatant was aspirated using a 8-channel or 12-channel manifold, and then 0.8 mL Staining buffer was added per well. After once again adding 0.8 mL staining buffer per well, the plates were centrifuged at 1,200 RPM (Beckman GS-6R or Sorvall Legend) at room temperature for 5 min, and again the supernatant was aspirated using a 8-channel or 12-channel manifold. […] Samples of 250 μL/well were transferred to a 96-well U-bottom plate, and the FACS analysis was performed gating on total lymphocytes. Samples were analyzed using a BD Calibur™ or BD FACSCanto™ flow cytometer equipped with the BD High Throughput Sampler.
`C=CC(=O)N1CCC[C@@H](Nc2nc(Nc3cccnc3)nc3[nH]ccc23)C1` [Example 63, 1-[(3R)-3-{[2-(Pyridin-3-ylamino)-7H-pyrrolo[2,3-d]pyrimidin-4-yl]amino}piperidin-1-yl]prop-2-en-1-one]: the 50% inhibitory concentration (IC50) is 1.38 µM. Same read-out and setting: in the case of `C=CC(=O)N1CC(Nc2ncnc3[nH]ccc23)CCC1(C)C` (stereo not drawn) [Example 67, 1-(5-((7H-Pyrrolo[2,3-d]pyrimidin-4-yl)amino)-2,2-dimethylpiperidin-1-yl)prop-2-en-1-one] it was 6.9 µM. Take `C=CC(=O)N1CCC[C@](C)(Nc2ncnc3[nH]ccc23)C1` [Example 70, (S)-1-(3-((7H-Pyrrolo[2,3-d]pyrimidin-4-yl)amino)-3-methylpiperidin-1-yl)prop-2-en-1-one]: the half-inhibitory concentration (IC50) was 5.53 µM.

Take `C=CC(=O)N1CC[C@@H]2CN(c3cnc4[nH]cc(C(=O)NC(C)C)c4n3)C[C@@H]21` [Example 170, 2-[(3aR,6aR)-1-acryloylhexahydropyrrolo[3,4-b]pyrrol-5(1H)-yl]-N-(propan-2-yl)-5H-pyrrolo[2,3-b]pyrazine-7-carboxamide]: the half-inhibitory concentration (IC50) is 1.37 µM.

Turning to `C=CC(=O)N[C@H]1C[C@@H](Nc2cnc3[nH]cc(C(=O)NC(C)C)c3n2)C1` [Example 184, 2-{[cis-3-(acryloylamino)cyclobutyl]amino}-N-(propan-2-yl)-5H-pyrrolo[2,3-b]pyrazine-7-carboxamide], the IC50 is 3.41 µM. In the case of `C=CC(=O)N(C)C1CN(c2cnc3[nH]cc(C(=O)NC(C)C)c3n2)C1` [Example 187, 2-{3-[acryloyl(methyl)amino]azetidin-1-yl}-N-(propan-2-yl)-5H-pyrrolo[2,3-b]pyrazine-7-carboxamide], the IC50 turned out to be 0.71 µM.

For `C=CC(=O)N[C@H]1C[C@H](Nc2cnc3[nH]cc(C(=O)NC(C)C)c3n2)C1` [Example 198, 2-{[trans-3-(acryloylamino)cyclobutyl]amino}-N-(propan-2-yl)-5H-pyrrolo[2,3-b]pyrazine-7-carboxamide], the IC50 was determined as 1.17 µM. Still for that read-out and setting: in the case of `C=CC(=O)N1CCC(Nc2cnc3[nH]cc(-c4ccc(C)nc4)c3n2)CC1` [Example 199, 1-(4-{[7-(6-methylpyridin-3-yl)-5H-pyrrolo[2,3-b]pyrazin-2-yl]amino}piperidin-1-yl)prop-2-en-1-one] it was 0.735 µM. `C=CC(=O)N1CCC(Oc2cnc3[nH]cc(-c4ccnc(C)c4)c3n2)CC1` [Example 220, 1-(4-{[7-(2-methylpyridin-4-yl)-5H-pyrrolo[2,3-b]pyrazin-2-yl]oxy}piperidin-1-yl)prop-2-en-1-one]: the IC50 was found to be 0.465 µM.

`C=CC(=O)N1CCC(Nc2cnc3[nH]cc(C(=O)NC4CCCC4(F)F)c3n2)CC1` (stereo not drawn) [Example 234, 2-[(1-acryloylpiperidin-4-yl)amino]-N-(2,2-difluorocyclopentyl)-5H-pyrrolo[2,3-b]pyrazine-7-carboxamide]: the IC50 amounted to 0.0652 µM.

Still in this experiment, the particulars now being: IL-15 stimulated, read-out: PBMC IL15-pSTAT5 IC50.
Consider `C=CC(=O)N1C[C@H](Nc2ncnc3[nH]ccc23)C[C@@H](OC)C1` [Example 77, 1-[(3R,5R)-3-Methoxy-5-(7H-pyrrolo[2,3-d]pyrimidin-4-ylamino)piperidin-1-yl]prop-2-en-1-one], for which the IC50 was 3.97 µM. Still for that read-out and setting: then `C=CC(=O)N1C[C@H](Nc2ncnc3[nH]cc(C(N)=O)c23)CC[C@@H]1C` [Example 164, 4-{[(3R,6S)-1-Acryloyl-6-methylpiperidin-3-yl]amino}-7H-pyrrolo[2,3-d]pyrimidine-5-carboxamide], with 1.65 µM. On to `C=CC(=O)N1C[C@@H]2C(Nc3cnc4[nH]cc(C(=O)NC(C)C)c4n3)[C@@H]2C1` (stereo partly drawn) [Example 189, 2-{[(1R,5S,6s)-3-acryloyl-3-azabicyclo[3.1.0]hex-6-yl]amino}-N-(propan-2-yl)-5H-pyrrolo[2,3-b]pyrazine-7-carboxamide], for which the IC50 was 1.74 µM. Consider `C=CC(=O)N1CCC(Nc2cnc3[nH]cc(-c4ccncc4F)c3n2)CC1` [Example 200, 1-(4-{[7-(3-fluoropyridin-4-yl)-5H-pyrrolo[2,3-b]pyrazin-2-yl]amino}piperidin-1-yl)prop-2-en-1-one], for which the IC50 came out at 0.819 µM. On the same count and under the same terms, then `C=CC(=O)N1CCC(Nc2cnc3[nH]cc(-c4ccc(S(C)(=O)=O)cc4)c3n2)CC1` [Example 203, 1-[4-({7-[4-(methylsulfonyl)phenyl]-5H-pyrrolo[2,3-b]pyrazin-2-yl}amino)piperidin-1-yl]prop-2-en-1-one], with 1.18 µM; and `C=CC(=O)N1CCC(Nc2cnc3[nH]cc(-c4cccc(C(=O)NC)c4)c3n2)CC1` [Example 204, 3-{2-[(1-acryloylpiperidin-4-yl)amino]-5H-pyrrolo[2,3-b]pyrazin-7-yl}-N-methylbenzamide], with 0.855 µM; and `C=CC(=O)N1CCC(Nc2cnc3[nH]cc(-c4cncc(C#N)c4)c3n2)CC1` [Example 206, 5-{2-[(1-acryloylpiperidin-4-yl)amino]-5H-pyrrolo[2,3-b]pyrazin-7-yl}pyridine-3-carbonitrile], with 0.163 µM. Still for that read-out and setting: then `C=CC(=O)N1CCC(Oc2cnc3[nH]cc(-c4cncc(F)c4)c3n2)CC1` [Example 213, 1-(4-{[7-(5-fluoropyridin-3-yl)-5H-pyrrolo[2,3-b]pyrazin-2-yl]oxy}piperidin-1-yl)prop-2-en-1-one], with 0.318 µM; and `C=CC(=O)N1CCC(Oc2cnc3[nH]cc(-c4ccc(C)nc4)c3n2)CC1` [Example 214, 1-(4-{[7-(6-methylpyridin-3-yl)-5H-pyrrolo[2,3-b]pyrazin-2-yl]oxy}piperidin-1-yl)prop-2-en-1-one], with 1.11 µM; and `C=CC(=O)N1CCC(Oc2cnc3[nH]cc(-c4cncnc4)c3n2)CC1` [Example 215, 1-(4-{[7-(pyrimidin-5-yl)-5H-pyrrolo[2,3-b]pyrazin-2-yl]oxy}piperidin-1-yl)prop-2-en-1-one], with 1.26 µM. Same read-out and setting: then `C=CC(=O)N1CCC(Oc2cnc3[nH]cc(-c4cccnc4F)c3n2)CC1` [Example 217, 1-(4-{[7-(2-fluoropyridin-3-yl)-5H-pyrrolo[2,3-b]pyrazin-2-yl]oxy}piperidin-1-yl)prop-2-en-1-one], with 0.129 µM; and `C=CC(=O)N1CCC(Oc2cnc3[nH]cc(-c4cnc(OC)nc4)c3n2)CC1` [Example 219, 1-(4-{[7-(2-methoxypyrimidin-5-yl)-5H-pyrrolo[2,3-b]pyrazin-2-yl]oxy}piperidin-1-yl)prop-2-en-1-one], with 0.987 µM; and `C=CC(=O)N1CCC(Oc2cnc3[nH]cc(-c4ccnc(F)c4)c3n2)CC1` [Example 222, 1-(4-{[7-(2-fluoropyridin-4-yl)-5H-pyrrolo[2,3-b]pyrazin-2-yl]oxy}piperidin-1-yl)prop-2-en-1-one], with 0.757 µM.

Take `C=CC(=O)N1CCC(Oc2cnc3[nH]cc(-c4cncc(C#N)c4)c3n2)CC1` [Example 225, 5-{2-[(1-acryloylpiperidin-4-yl)oxy]-5H-pyrrolo[2,3-b]pyrazin-7-yl}pyridine-3-carbonitrile]: the IC50 turned out to be 2.91 µM. Same read-out and setting: in the case of `C=CC(=O)N1CCC(Oc2cnc3[nH]cc(-c4ccc(F)nc4)c3n2)CC1` [Example 226, 1-(4-{[7-(6-fluoropyridin-3-yl)-5H-pyrrolo[2,3-b]pyrazin-2-yl]oxy}piperidin-1-yl)prop-2-en-1-one] it was 0.699 µM; in that of `C=CC(=O)N1CCC(Oc2cnc3[nH]cc(-c4cccc(C(=O)NC)c4)c3n2)CC1` [Example 227, 3-{2-[(1-acryloylpiperidin-4-yl)oxy]-5H-pyrrolo[2,3-b]pyrazin-7-yl}-N-methylbenzamide], 0.643 µM; in that of `C=CC(=O)N1CCC(Nc2cnc3[nH]cc(C(=O)NCC4(O)CCC4)c3n2)CC1` [Example 231, 2-[(1-acryloylpiperidin-4-yl)amino]-N-[(1-hydroxycyclobutyl)methyl]-5H-pyrrolo[2,3-b]pyrazine-7-carboxamide], 3.62 µM. Take `C=CC(=O)N1CCC(Nc2cnc3[nH]cc(C(=O)NCC4(O)CCCC4)c3n2)CC1` [Example 232, 2-[(1-acryloylpiperidin-4-yl)amino]-N-[(1-hydroxycyclopentyl)methyl]-5H-pyrrolo[2,3-b]pyrazine-7-carboxamide]: the concentration for half-maximal inhibition (IC50) was 1.64 µM. Same read-out and setting: in the case of `C=CC(=O)N1CCC(Nc2cnc3[nH]cc(C(=O)NCC4(O)CCC(C)C4)c3n2)CC1` (stereo not drawn) [Example 235, 2-[(1-acryloylpiperidin-4-yl)amino]-N-[(1-hydroxy-3-methylcyclopentyl)methyl]-5H-pyrrolo[2,3-b]pyrazine-7-carboxamide] it was 1.7 µM; in that of `C=CC(=O)N1CCC(Nc2cnc3[nH]cc(C(=O)N[C@@H]4CCC[C@H]4F)c3n2)CC1` [Example 237, 2-[(1-acryloylpiperidin-4-yl)amino]-N-[(1R,2R)-2-fluorocyclopentyl]-5H-pyrrolo[2,3-b]pyrazine-7-carboxamide], 0.0801 µM.

A word on the IC50: it is the point on the concentration scale where inhibition reaches its midpoint.
